Literature values in patent US20100151107A1, “EXTRACTION METHOD FOR THE CLASSIFIED EXTRACTION AND SEPARATION OF VEGETABLE COMPONENT MATERIALS, AND THE APPLICATION THEREOF” (priority 2006, published 2010).

How the values were obtained:
[1] = system: isolated mouse mammary gland cells; settings: MMOC-test; versus resveratrol isolated from red vine
[2] = rats; dose 1.000 mg xanthohumol per kg body weight
[3] = system: 60 different human tumour-cell lines; settings: 60 different human tumour-cell lines (leukaemia, lung cancer, large intestine, melanoma, breast cancer)
healthy cells = settings: all hitherto described in-vitro experiments
[4] = in-vitro; against osteoporosis, arteriosclerosis, diseases of the coronary vessels, heart attack and stroke

## COc1cc(O)c(CC=C(C)C)c(O)c1C(=O)/C=C/c1ccc(O)cc1 [Xanthohumol, xanthohumol]
[1]
  effectiveness relative to resveratrol: more than 200 fold
[2]
  toxic effect: no toxic effect
[3]
  growth inhibiting and cytotoxic effect: growth inhibiting and cytotoxic effect
Healthy cells
  cytotoxic effect against healthy cells: no cytotoxic effect
[4]
  preventive effect: preventive effect
